The subject of the first test is isolated rat bladder strips. The experiment in a line: Inhibition of contractions of isolated rat bladder strips (KCl-enhanced contractile activity). The conditions noted are these: 0.5 h; isolated Sprague-Dawley rat bladder strips, 15 mM KCl added, 30 min challenge per concentration; read-out: IC50 (concentration required to elicit 50% inhibition of pre-drug contractile activity). The procedure: The compounds of the examples were tested to determine their ability to inhibit contractions of isolated rat bladder strips. See Foster, C. D. et al. Br. J. Pharmacol. 97:281-291, 1989; and Fujii, K. et al. Br. J. Pharmacol. 99:779-785, 1990. Malmgren, A. et al. J. Urol. 143:828-834, 1990, each of which are incorporated herein by reference in its entirety.
Male Sprague-Dawley rats (150-200 g) were obtained from ACE animal suppliers. Animals were allowed free access to food and water.
Animals were euthanized by CO2 asphyxiation followed by a bilateral thoracotomy. The bladder was removed into warm (37 deg. C.) physiological salt solution (PSS) of the following composition (mM): NaCl, 118.4; KCl, 4.7; CaCl2, 2.5; MgSO4.7H2O, 1.2; NaHCO3, 24.9; KH2PO4, 1.2; glucose, 11.1; EDTA, 0.023; gassed with 95% O2/5% CO2; pH 7.4. The bladder was opened and then cut into strips 1-2 mm in width and 7-10 mm in length. The strips were subsequently suspended in a 10 ml tissue bath under an initial resting tension of 1.5 g. The strips were held in place by two surgical clips one of which was attached to a fixed hook while the other was attached to an isometric force transducer. […] The carbachol was then washed out and the tissue allowed to relax to its resting level of activity. Following a further thirty minute period of recovery an additional 15 mM KCl was introduced into the tissue bath. This increase in KCl concentration results in a large increase in the amplitude of spontaneous contractions (and initiation of contractions in previously quiescent strips) superimposed upon a small increase in basal tone. Following stabilization of this enhanced level of contractile activity, incremental increases in the concentration of test compound or vehicle were introduced into the tissue bath. Contractile activity was measured for each compound or vehicle concentration during the last minute of a thirty minute challenge.
Isometric force developed by the bladder strips was measured using a force transducer and recorded on a polygraph. Contractile activity was assessed by measuring either the average amplitude of the contractions (baseline to peak force) occurring during a one min period or, preferably, by integrating the contractile activity with respect to time (one minute measuring period).
The percentage inhibition of contractile activity evoked by each concentration of a given test compounds was used to generate a concentration-response curve. The concentration of test compound required to elicit 50% inhibition of pre-drug contractile activity (IC50 concentration) was calculated from this concentration-response curve. The maximum percentage inhibition of contractile activity evoked by a test compound was also recorded for concentrations of test compound <- or 30 uM.
As for `CC(C)(C)CC(=O)Nc1cc2c3c(c1)c1c(n3CCC2)CCCCC1` [Example 1, N-5,6,9,10,11,12-hexahydro-4H,8H-cyclohepta[4,5]pyrrolo[3,2,1-ij]quinolin-2-yl-3,3-dimethylbutanamide], the IC50 was 30 to 70 nM. The same measure, in the same setting: under `CCCCCC(=O)Nc1cc2c3c(c1)c1c(n3CCC2)CCCCC1` [Example 3, N-5,6,9,10,11,12-hexahydro-4H,8H-cyclohepta[4,5]pyrrolo[3,2,1-ij]quinolin-2-ylhexanamide] stands 400 to 2600 nM; under `CC(C)CC(=O)Nc1cc2c3c(c1)c1c(n3CCC2)CCCCC1` [Example 6, N-5,6,9,10,11,12-hexahydro-4H,8H-cyclohepta[4,5]pyrrolo[3,2,1-ij]quinolin-2-yl-3-methylbutanamide], 80 to 350 nM; under `CCC(=O)Nc1cc2c3c(c1)c1c(n3CCC2)CCCCC1` [Example 7, N-5,6,9,10,11,12-hexahydro-4H,8H-cyclohepta[4,5]pyrrolo[3,2,1-ij]quinolin-2-ylpropanamide], 400 to 550 nM.

As for `CCCCC(=O)Nc1cc2c3c(c1)c1c(n3CCC2)CCCCC1` [Example 9, N-5,6,9,10,11,12-hexahydro-4H,8H-cyclohepta[4,5]pyrrolo[3,2,1-ij]quinolin-2-ylpentanamide], the IC50 was 50 to 1000 nM. The same measure, in the same setting: as for `CC(C)(C)CC(=O)Nc1cc2c3c(c1)c1c(n3CC2)CCCCC1` [Example 10, N-4,5,8,9,10,11-hexahydro-7H-cyclohepta[b]pyrrolo[3,2,1-hi]indol-2-yl-3,3-dimethylbutanamide], the figure is 150 to 350 nM; as for `CC(=O)Nc1cc2c3c(c1)c1c(n3CC2)CCCCC1` [Example 11, N-4,5,8,9,10,11-hexahydro-7H-cyclohepta[b]pyrrolo[3,2,1-hi]indol-2-ylacetamide], 650 to 700 nM. The same measure, in the same setting: as for `CCCCC(=O)Nc1cc2c3c(c1)c1c(n3CC2)CCCCC1` [Example 12, N-4,5,8,9,10,11-hexahydro-7H-cyclohepta[b]pyrrolo[3,2,1-hi]indol-2-ylpentanamide], the figure is 700 to 1000 nM. On the same count and under the same terms, under `O=C(Cc1ccccc1)Nc1cc2c3c(c1)c1c(n3CC2)CCCCC1` [Example 13, N-4,5,8,9,10,11-hexahydro-7H-cyclohepta[b]pyrrolo[3,2,1-hi]indol-2-yl-2-phenylacetamide] stands 500 to 600 nM.

Consider `CC(C)CC(=O)Nc1cc2c3c(c1)c1c(n3CC2)CCCCC1` [Example 14, N-4,5,8,9,10,11-hexahydro-7H-cyclohepta[b]pyrrolo[3,2,1-hi]indol-2-yl-3-methylbutanamide], for which the IC50 was 800 to 1000 nM.

For `O=C(CCC1CCCC1)Nc1cc2c3c(c1)c1c(n3CC2)CCCCC1` [Example 15, 3-cyclopentyl-N-4,5,8,9,10,11-hexahydro-7H-cyclohepta[b]pyrrolo[3,2,1-hi]indol-2-ylpropanamide], the IC50 fell in the range of 300 to 1200 nM. For the compound `CCCCCC(=O)Nc1cc2c3c(c1)c1c(n3CCC2)CCCC1` [Example 17, N-5,6,8,9,10,11-hexahydro-4H-pyrido[3,2,1-jk]carbazol-2-ylhexanamide], the IC50 fell in the range of 400 to 800 nM. On the same count and under the same terms, under `CC(C)CC(=O)Nc1cc2c3c(c1)c1c(n3CCC2)CCCC1` [Example 18, N-5,6,8,9,10,11-hexahydro-4H-pyrido[3,2,1-jk]carbazol-2-yl-3-methylbutanamide] stands 500 to 550 nM.

`CC(=O)Nc1cc2c3c(c1)c1c(n3CCC2)CCCC1` [Example 19, N-5,6,8,9,10,11-hexahydro-4H-pyrido[3,2,1-jk]carbazol-2-ylacetamide]: the IC50 lay within 2000 to 3000 nM.

On to `CCCCCC(=O)Nc1cc2c3c(c1)c1c(n3CC2)CCCCCC1` [Example 20, N-4,5,7,8,9,10,11,12-octahydrocycloocta[b]pyrrolo[3,2,1-hi]indol-2-ylhexanamide], for which the IC50 lay in the range of 80 to 550 nM. As for `CC(C)(C)CC(=O)Nc1cc2c3c(c1)c1c(n3CC2)CCCCCC1` [Example 21, 3,3-dimethyl-N-4,5,7,8,9,10,11,12-octahydrocycloocta[b]pyrrolo[3,2,1-hi]indol-2-ylbutanamide], the IC50 was in the range of 160 to 700 nM. Same read-out and setting: as for `CCCCCCC(=O)Nc1cc2c3c(c1)c1c(n3CC2)CCCCCC1` [Example 22, N-4,5,7,8,9,10,11,12-octahydrocycloocta[b]pyrrolo[3,2,1-hi]indol-2-ylheptanamide], the figure is 800 to 1000 nM.

The test is the same for the next values; noted with them: @ 3 μM; isolated rat bladder strips, 15 mM KCl added.
In the case of `CC(C)(C)C(=O)Nc1cc2c3c(c1)c1c(n3CCC2)CCCCC1` [Example 2, N-5,6,9,10,11,12-hexahydro-4H,8H-cyclohepta[4,5]pyrrolo[3,2,1-ij]quinolin-2-yl-2,2-dimethylpropanamide], the “% Enhancement of Contractility @ 3 μM” value is listed as 20-100%. For `O=C(Nc1cc2c3c(c1)c1c(n3CCC2)CCCCC1)c1cccs1` [Example 5, N-5,6,9,10,11,12-hexahydro-4H,8H-cyclohepta[4,5]pyrrolo[3,2,1-ij]quinolin-2-ylthiophene-2-carboxamide], the “% Enhancement of Contractility @ 3 μM” value was 60-90%.

Consider `O=C(Nc1cc2c3c(c1)c1c(n3CCC2)CCCCC1)C1CCCCC1` [Example 8, N-5,6,9,10,11,12-hexahydro-4H,8H-cyclohepta[4,5]pyrrolo[3,2,1-ij]quinolin-2-ylcyclohexanecarboxamide], for which the “% Enhancement of Contractility @ 3 μM” value is on record as 150-200%.

With `CC(C)(C)CC(=O)Nc1cc2c3c(c1)c1c(n3CCC2)CCCC1` [Example 16, N-5,6,8,9,10,11-hexahydro-4H-pyrido[3,2,1-jk]carbazol-2-yl-3,3-dimethylbutanamide], the “% Enhancement of Contractility @ 3 μM” value was 80-100%.

The same test, now with this note: @ 3 μM; isolated rat bladder strips, 15 mM KCl added; read-out: % Inhibition of Contractility @ 3 μM.
On to `O=C(CCc1ccccc1)Nc1cc2c3c(c1)c1c(n3CCC2)CCCCC1` [Example 4, N-5,6,9,10,11,12-hexahydro-4H,8H-cyclohepta[4,5]pyrrolo[3,2,1-ij]quinolin-2-yl-3-phenylpropanamide], for which the inhibition at 3 µM lay within 5 to 20%. On the same count and under the same terms, as for `CC(C)(C)CC(=O)Nc1cc2c3c(c1)c1c(n3CCC2)C(=O)CCCC1` [Example 23, 3,3-dimethyl-N-(8-oxo-5,6,9,10,11,12-hexahydro-4H,8H-cyclohepta[4,5]pyrrolo[3,2,1-ij]quinolin-2-yl)butanamide], the figure is 25 to 50%.

The values are drawn from patent US7662831B2, “Tetracyclic indoles as potassium channel modulators” (Wyeth LLC, priority 2006, dated 2010).
